In brackets after ≈: the same amount, converted by molar mass. Square brackets hold non-standard residues; d marks the D form. Peptide text beside a SMILES is read from it. * marks the point of attachment. NMeR = CN[C@@H](CCCNC(=N)N)C(=O)O; NMeI = CC[C@H](C)[C@H](NC)C(=O)O; Tridecanoyl = CCCCCCCCCCCCC(=O)*; NMeL = CN[C@@H](CC(C)C)C(=O)O; Undecanoyl = CCCCCCCCCCC(=O)*; NMeK = CN[C@@H](CCCCN)C(=O)O
Columns and labels:
[1] = Hemolytic activity in human RBC assessed as hemolysis measured after 24 hrs; assay type: toxicity, cell-based, Erythrocyte; settings: red blood cells
Enterococcus faecium = test: Antibacterial activity against vancomycin resistant Enterococcus faecium ATCC 700221 assessed as inhibition of bacterial growth incubated for 48 hrs by CLSI-based broth microdilution assay; assay type: functional
Staphylococcus aureus [2] = test: Antibacterial activity against methicillin-resistant Staphylococcus aureus ATCC 33591 assessed as reduction in bacterial growth incubated for 18 hrs by agar dilution method; assay type: functional
Escherichia coli [3] = test: Antibacterial activity against Escherichia coli ATCC 25922 assessed as reduction in bacterial growth incubated for 18 hrs by Mueller-Hinton Broth based microdilution assay; assay type: functional
Staphylococcus aureus [4] = test: Antibacterial activity against Staphylococcus aureus ATCC 25923 assessed as reduction in bacterial growth incubated for 18 hrs by Mueller-Hinton Broth based microdilution assay; assay type: functional
Klebsiella pneumoniae [5] = test: Antimicrobial activity against Klebsiella pneumoniae ATCC 700603 assessed as reduction in microbial growth incubated for 18 hrs by Mueller-Hinton Broth based microdilution assay; assay type: functional
Pseudomonas aeruginosa [6] = test: Antimicrobial activity against Pseudomonas aeruginosa ATCC 27853 assessed as reduction in microbial growth incubated for 18 hrs by Mueller-Hinton Broth based microdilution assay; assay type: functional
Bacillus subtilis [7] = test: Antimicrobial activity against Bacillus subtilis ATCC 23857 assessed as reduction in microbial growth incubated for 18 hrs by Mueller-Hinton Broth based microdilution assay; assay type: functional
Bacillus subtilis [8] = test: Antibacterial activity against Bacillus subtilis ATCC 23857 assessed as reduction in bacterial cell growth measured for 18 hrs by Mueller-Hinton broth based two-fold serial dilution method; assay type: functional
Klebsiella pneumoniae [9] = test: Antibacterial activity against Klebsiella pneumoniae ATCC 700603 assessed as reduction in bacterial cell growth measured for 18 hrs by Mueller-Hinton broth based two-fold serial dilution method; assay type: functional
Pseudomonas aeruginosa [10] = test: Antibacterial activity against Pseudomonas aeruginosa ATCC 27853 assessed as reduction in bacterial cell growth measured for 18 hrs by Mueller-Hinton broth based two-fold serial dilution method; assay type: functional
Staphylococcus aureus [11] = test: Antibacterial activity against Staphylococcus aureus ATCC 25923 assessed as reduction in bacterial cell growth measured for 18 hrs by Mueller-Hinton broth based two-fold serial dilution method; assay type: functional
Escherichia coli [12] = test: Antibacterial activity against Escherichia coli ATCC 25922 assessed as reduction in bacterial cell growth measured for 18 hrs by Mueller-Hinton broth based two-fold serial dilution method; assay type: functional

| Structure (SMILES) | HC50 at 24 h [1] [µM] | MIC (Enterococcus faecium) [µM] | MIC (Staphylococcus aureus [2]) [µM] | MIC (Escherichia coli [3]) [µM] | MIC (Staphylococcus aureus [4]) [µM] | MIC (Klebsiella pneumoniae [5]) [µM] | MIC (Pseudomonas aeruginosa [6]) [µM] | MIC (Bacillus subtilis [7]) [µM] | MIC (Bacillus subtilis [8]) [µM] | MIC (Klebsiella pneumoniae [9]) [µM] | MIC (Pseudomonas aeruginosa [10]) [µM] | MIC (Staphylococcus aureus [11]) [µM] | MIC (Escherichia coli [12]) [µM] |
| --- | --- | --- | --- | --- | --- | --- | --- | --- | --- | --- | --- | --- | --- |
| CC[C@H](C)[C@H](NC(=O)[C@H](CCCCN)NC(=O)[C@H](CCCCN)NC(=O)[C@H](CC(C)C)NC(=O)[C@H](CC(C)C)NC(=O)CN)C(=O)N[C@@H](CCCCN)C(=O)N[C@@H](Cc1c[nH]c2ccccc12)C(=O)N[C@@H](CC(C)C)C(=O)N[C@@H](CC(C)C)C(N)=O (H-GLLKKIKWLL-NH2) | 152 | 22.1 (≈ 26.8 µg/mL) | 28.4 (≈ 34.4 µg/mL) |  |  |  |  |  |  |  |  |  |  |
| CC[C@H](C)[C@H](NC(=O)[C@H](CCCNC(=N)N)NC(=O)[C@H](CCCCN)NC(=O)[C@H](CC(C)C)NC(=O)[C@H](CC(C)C)NC(=O)CN)C(=O)N[C@@H](CCCCN)C(=O)N[C@H](C(=O)N[C@@H](CC(C)C)C(=O)N(C)[C@@H](CC(C)C)C(N)=O)[C@@H](C)O (H-GLLKRIKTL[NMeL]-NH2) |  |  |  | > 128 | > 128 | > 128 | 32 | 64 |  |  |  |  |  |
| CC[C@H](C)[C@H](NC(=O)[C@H](CCCNC(=N)N)NC(=O)[C@H](CCCCN)NC(=O)[C@H](CC(C)C)NC(=O)[C@H](CC(C)C)NC(=O)CN)C(=O)N[C@@H](CCCCN)C(=O)N[C@H](C(=O)N(C)[C@@H](CC(C)C)C(=O)N[C@@H](CC(C)C)C(N)=O)[C@@H](C)O (H-GLLKRIKT[NMeL]L-NH2) |  |  |  | > 128 | > 128 | > 128 | 28 | 128 |  |  |  |  |  |
| CC[C@H](C)[C@H](NC(=O)[C@H](CCCNC(=N)N)NC(=O)[C@H](CCCCN)NC(=O)[C@H](CC(C)C)NC(=O)[C@H](CC(C)C)NC(=O)CN)C(=O)N(C)[C@@H](CCCCN)C(=O)N[C@H](C(=O)N[C@@H](CC(C)C)C(=O)N[C@@H](CC(C)C)C(N)=O)[C@@H](C)O (H-GLLKRI[NMeK]TLL-NH2) |  |  |  | > 128 | > 128 | > 128 | 128 | 128 |  |  |  |  |  |
| CC[C@H](C)[C@@H](C(=O)N[C@@H](CCCCN)C(=O)N[C@H](C(=O)N[C@@H](CC(C)C)C(=O)N[C@@H](CC(C)C)C(N)=O)[C@@H](C)O)N(C)C(=O)[C@H](CCCNC(=N)N)NC(=O)[C@H](CCCCN)NC(=O)[C@H](CC(C)C)NC(=O)[C@H](CC(C)C)NC(=O)CN (H-GLLKR[NMeI]KTLL-NH2) |  |  |  | > 128 | > 128 | > 128 | > 128 | 128 |  |  |  |  |  |
| CC[C@H](C)[C@H](NC(=O)[C@H](CCCNC(=N)N)N(C)C(=O)[C@H](CCCCN)NC(=O)[C@H](CC(C)C)NC(=O)[C@H](CC(C)C)NC(=O)CN)C(=O)N[C@@H](CCCCN)C(=O)N[C@H](C(=O)N[C@@H](CC(C)C)C(=O)N[C@@H](CC(C)C)C(N)=O)[C@@H](C)O (H-GLLK[NMeR]IKTLL-NH2) |  |  |  | > 128 | > 128 | > 128 | 128 | 128 |  |  |  |  |  |
| CC[C@H](C)[C@H](NC(=O)[C@H](CCCNC(=N)N)NC(=O)[C@H](CCCCN)N(C)C(=O)[C@H](CC(C)C)NC(=O)[C@H](CC(C)C)NC(=O)CN)C(=O)N[C@@H](CCCCN)C(=O)N[C@H](C(=O)N[C@@H](CC(C)C)C(=O)N[C@@H](CC(C)C)C(N)=O)[C@@H](C)O (H-GLL[NMeK]RIKTLL-NH2) |  |  |  | > 128 | > 128 | > 128 | 64 | 128 |  |  |  |  |  |
| CC[C@H](C)[C@H](NC(=O)[C@H](CCCNC(=N)N)NC(=O)[C@H](CCCCN)N(C)C(=O)[C@H](CC(C)C)NC(=O)[C@H](CC(C)C)NC(=O)CN)C(=O)N(C)[C@@H](CCCCN)C(=O)N[C@H](C(=O)N[C@@H](CC(C)C)C(=O)N[C@@H](CC(C)C)C(N)=O)[C@@H](C)O (H-GLL[NMeK]RI[NMeK]TLL-NH2) |  |  |  | > 128 | > 128 | > 128 | 128 | > 128 |  |  |  |  |  |
| CC[C@H](C)[C@H](NC(=O)[C@H](CCCNC(=N)N)N(C)C(=O)[C@H](CCCCN)N(C)C(=O)[C@H](CC(C)C)NC(=O)[C@H](CC(C)C)NC(=O)CN)C(=O)N[C@@H](CCCCN)C(=O)N[C@H](C(=O)N[C@@H](CC(C)C)C(=O)N[C@@H](CC(C)C)C(N)=O)[C@@H](C)O (H-GLL[NMeK][NMeR]IKTLL-NH2) |  |  |  | > 128 | > 128 | > 128 | > 128 | > 128 |  |  |  |  |  |
| CC[C@H](C)[C@H](NC(=O)[C@H](CCCNC(=N)N)NC(=O)[C@H](CCCCN)NC(=O)[C@H](CC(C)C)N(C)C(=O)[C@H](CC(C)C)NC(=O)CN)C(=O)N[C@@H](CCCCN)C(=O)N[C@H](C(=O)N[C@@H](CC(C)C)C(=O)N[C@@H](CC(C)C)C(N)=O)[C@@H](C)O (H-GL[NMeL]KRIKTLL-NH2) |  |  |  | > 128 | > 128 | > 128 | 64 | 64 |  |  |  |  |  |
| CC[C@H](C)[C@H](NC(=O)[C@H](CCCNC(=N)N)NC(=O)[C@H](CCCCN)NC(=O)[C@H](CC(C)C)N(C)C(=O)[C@H](CC(C)C)NC(=O)CN)C(=O)N[C@@H](CCCCN)C(=O)N[C@H](C(=O)N(C)[C@@H](CC(C)C)C(=O)N[C@@H](CC(C)C)C(N)=O)[C@@H](C)O (H-GL[NMeL]KRIKT[NMeL]L-NH2) |  |  |  | > 128 | > 128 | > 128 | > 128 | > 128 |  |  |  |  |  |
| CC[C@H](C)[C@@H](C(=O)N[C@@H](CCCCN)C(=O)N[C@H](C(=O)N[C@@H](CC(C)C)C(=O)N[C@@H](CC(C)C)C(N)=O)[C@@H](C)O)N(C)C(=O)[C@H](CCCNC(=N)N)NC(=O)[C@H](CCCCN)NC(=O)[C@H](CC(C)C)N(C)C(=O)[C@H](CC(C)C)NC(=O)CN (H-GL[NMeL]KR[NMeI]KTLL-NH2) |  |  |  | > 128 | > 128 | > 128 | > 128 | 128 |  |  |  |  |  |
| CC[C@H](C)[C@H](NC(=O)[C@H](CCCNC(=N)N)NC(=O)[C@H](CCCCN)NC(=O)[C@H](CC(C)C)NC(=O)[C@H](CC(C)C)N(C)C(=O)CN)C(=O)N[C@@H](CCCCN)C(=O)N[C@H](C(=O)N[C@@H](CC(C)C)C(=O)N[C@@H](CC(C)C)C(N)=O)[C@@H](C)O (H-G[NMeL]LKRIKTLL-NH2) |  |  |  | > 128 | > 128 | > 128 | 32 | 16 |  |  |  |  |  |
| CC[C@H](C)[C@H](NC(=O)[C@H](CCCNC(=N)N)NC(=O)[C@H](CCCCN)NC(=O)[C@H](CC(C)C)NC(=O)[C@H](CC(C)C)N(C)C(=O)CN)C(=O)N[C@@H](CCCCN)C(=O)N[C@H](C(=O)N[C@@H](CC(C)C)C(=O)N(C)[C@@H](CC(C)C)C(N)=O)[C@@H](C)O (H-G[NMeL]LKRIKTL[NMeL]-NH2) |  |  |  | > 128 | > 128 | > 128 | 128 | > 128 |  |  |  |  |  |
| CC[C@H](C)[C@H](NC(=O)[C@H](CCCNC(=N)N)NC(=O)[C@H](CCCCN)NC(=O)[C@H](CC(C)C)N(C)C(=O)[C@H](CC(C)C)N(C)C(=O)CN)C(=O)N[C@@H](CCCCN)C(=O)N[C@H](C(=O)N(C)[C@@H](CC(C)C)C(=O)N(C)[C@@H](CC(C)C)C(N)=O)[C@@H](C)O (H-G[NMeL][NMeL]KRIKT[NMeL][NMeL]-NH2) |  |  |  | > 128 | > 128 | > 128 | 128 | > 128 |  |  |  |  |  |
| CCCCCCCCCCCCC(=O)NCC(=O)N[C@@H](CC(C)C)C(=O)N[C@@H](CC(C)C)C(=O)N[C@@H](CCCCN)C(=O)N[C@@H](CCCNC(=N)N)C(=O)N[C@H](C(=O)N[C@@H](CCCCN)C(=O)N[C@H](C(=O)N[C@@H](CC(C)C)C(=O)N[C@@H](CC(C)C)C(N)=O)[C@@H](C)O)[C@@H](C)CC (Tridecanoyl-GLLKRIKTLL-NH2) |  |  |  |  |  |  |  |  | 4 (≈ 5.4 µg/mL) | 16 (≈ 21.6 µg/mL) | 8 (≈ 10.8 µg/mL) | 8 (≈ 10.8 µg/mL) | 8 (≈ 10.8 µg/mL) |
| CCCCCCCCCCC(=O)NCC(=O)N[C@@H](CC(C)C)C(=O)N[C@@H](CC(C)C)C(=O)N[C@@H](CCCCN)C(=O)N[C@@H](CCCNC(=N)N)C(=O)N[C@H](C(=O)N[C@@H](CCCCN)C(=O)N[C@H](C(=O)N[C@@H](CC(C)C)C(=O)N[C@@H](CC(C)C)C(N)=O)[C@@H](C)O)[C@@H](C)CC (Undecanoyl-GLLKRIKTLL-NH2) |  |  |  |  |  |  |  |  | 4 (≈ 5.29 µg/mL) | 8 (≈ 10.6 µg/mL) | 8 (≈ 10.6 µg/mL) | 8 (≈ 10.6 µg/mL) | 8 (≈ 10.6 µg/mL) |

From ChEMBL document CHEMBL5608163, “Structure modification of anoplin for fighting resistant bacteria” (Eur J Med Chem, 2024)
